In article doi:10.1101/2025.03.14.643404, “A Bivalent Molecular Glue Linking Lysine Acetyltransferases to Oncogene-induced Cell Death” (bioRxiv, 2025):
Entries after “also recorded” stand apart in the source; their conditions may differ.

What was measured:
Format in all cases: cell-based
K422 = assay: Cell viability, 7 days compound treatment (Cell Titer-Glo), K422; settings: Homo sapiens, 168 h; K422, 7 days; read-out: IC50 of antiproliferation
Protocol: Fifteen thousand cells were seeded in 100 μl of media per well of a U-bottom 96-well plate and treated with digitally dispensed drugs (Tecan D300e) for the indicated times and doses. After 96 hours, plates were centrifuged for 750 rpm for 3 minutes, and old media was exchanged for 100 μl of fresh media. Drug treatment was then repeated at the indicated doses. 72 hours following media change, cells were transferred to 96 well flat-bottom opaque plates. Viability was measured by adding 25 μL Cell Titer-Glo reagent (Promega G7570) to each well and luminescence was measured (BMG Labtech Pherastar FS). The background luminescence was subtracted, and the signal was normalized to DMSO-treated cells. IC50 measurements on cell lines were calculated using at least three biological replicates by separate cell passages. Fit of dose–response curves to data and statistical analysis was performed using GraphPad PRISM using the four-parameter log(inhibitor) vs response function.

BCL6 = target: T1, BCL6 (Homo sapiens, UniProt P41182+Q09472+Q92793); assay: Acetyl-lysine IP and western blot for BCL6 in SUDHL5; settings: SUDHL5, 1 hour
T1 construct: endogenous in cells; host or cells: SUDHL5
Protocol: Cells were plated at 1M/mL and treated with compound or DMSO at indicated timepoints and doses. Cells were harvested on ice, counted, normalized by count, and washed 1X in PBS containing compound or DMSO. For only BCL6 immunoprecipitation, compound or DMSO was maintained in nuclear preparation buffers at identical concentration to cell treatment throughout. Nuclei were prepared by incubation in Buffer A (25 mM HEPES pH 7.5, 25 mM KCl, 0.05 mM EDTA, 1mM MgCl2, 10% glycerol, 0.1% NP-40) supplemented with protease inhibitors (1 mM PMSF, ~[…] pepstatin, aprotinin, and leupeptin) at 4 °C for 7 mins. Nuclear preparation was confirmed by Trypan blue staining and nuclei were pelleted by centrifugation for 5 min at 500g at 4 °C. Pelleted nuclei were resuspended in IP Buffer (25 mM HEPES pH 7.5, 150mM KCl, 0.05 mM EDTA, 1 mM MgCl2, 10% glycerol, 0.1% NP-40) supplemented with protease inhibitors and 1 μL/250 units benzonase (Sigma E1014). Chromatin was removed by incubation with rotation for 30 min and nuclei sheared using a 27-gauge needle exactly five times. […]
Cells were plated at 1M/mL and treated with drug at indicated timepoints and doses. […] After 10 min centrifugation at 14,000g and 4 °C, the supernatant was collected and protein concentration was measured by Bradford. […] ImageStudio (Licor) was used for blot imaging and quantification.

[1] = tested on: primary human fibroblasts; assay: Viability of primary human fibroblasts, 72 h; settings: compared with SUDHL5
Protocol: Lymphoma and leukemia cells were grown in RPMI-1640 medium (ATCC 30–2001) supplemented with 10% fetal bovine serum (FBS) and 1% 100X Penicillin-Streptomycin (Gibco, 15140122) in incubators at 37°C with 5% carbon dioxide. KARPAS422 cells were obtained from Sigma (06101702) and DB and SUDHL5 were obtained from the American Tissue Culture Collection (ATCC). The Daudi cell line, originally from ATCC, was generously provided by R. Levy’s laboratory at Stanford University. Raji cells, also from ATCC, were a gift from J. Cochran’s laboratory at Stanford University. TOLEDO and K562 cells were originally obtained from ATCC and were kindly shared by A. Alizadeh’s laboratory at Stanford University. […]
Thirty thousand cells were seeded in 100 μl of media per well of a 96-well plate and treated with drug for the indicated times and doses. A resazurin-based indicator of cell health (PrestoBlue; P50200, Thermo Fisher) was added for 1.5 h at 37°C, at which point the fluorescence ratio at 560/590 nm was recorded (Tecan Spark). The background fluorescence was subtracted, and the signal was normalized to DMSO-treated cells. IC50 measurements on cell lines were calculated using at least three biological replicates (separate cell passages). […]

T1 sequence (Q09472 2-2414 limits assumed, other chains not shown): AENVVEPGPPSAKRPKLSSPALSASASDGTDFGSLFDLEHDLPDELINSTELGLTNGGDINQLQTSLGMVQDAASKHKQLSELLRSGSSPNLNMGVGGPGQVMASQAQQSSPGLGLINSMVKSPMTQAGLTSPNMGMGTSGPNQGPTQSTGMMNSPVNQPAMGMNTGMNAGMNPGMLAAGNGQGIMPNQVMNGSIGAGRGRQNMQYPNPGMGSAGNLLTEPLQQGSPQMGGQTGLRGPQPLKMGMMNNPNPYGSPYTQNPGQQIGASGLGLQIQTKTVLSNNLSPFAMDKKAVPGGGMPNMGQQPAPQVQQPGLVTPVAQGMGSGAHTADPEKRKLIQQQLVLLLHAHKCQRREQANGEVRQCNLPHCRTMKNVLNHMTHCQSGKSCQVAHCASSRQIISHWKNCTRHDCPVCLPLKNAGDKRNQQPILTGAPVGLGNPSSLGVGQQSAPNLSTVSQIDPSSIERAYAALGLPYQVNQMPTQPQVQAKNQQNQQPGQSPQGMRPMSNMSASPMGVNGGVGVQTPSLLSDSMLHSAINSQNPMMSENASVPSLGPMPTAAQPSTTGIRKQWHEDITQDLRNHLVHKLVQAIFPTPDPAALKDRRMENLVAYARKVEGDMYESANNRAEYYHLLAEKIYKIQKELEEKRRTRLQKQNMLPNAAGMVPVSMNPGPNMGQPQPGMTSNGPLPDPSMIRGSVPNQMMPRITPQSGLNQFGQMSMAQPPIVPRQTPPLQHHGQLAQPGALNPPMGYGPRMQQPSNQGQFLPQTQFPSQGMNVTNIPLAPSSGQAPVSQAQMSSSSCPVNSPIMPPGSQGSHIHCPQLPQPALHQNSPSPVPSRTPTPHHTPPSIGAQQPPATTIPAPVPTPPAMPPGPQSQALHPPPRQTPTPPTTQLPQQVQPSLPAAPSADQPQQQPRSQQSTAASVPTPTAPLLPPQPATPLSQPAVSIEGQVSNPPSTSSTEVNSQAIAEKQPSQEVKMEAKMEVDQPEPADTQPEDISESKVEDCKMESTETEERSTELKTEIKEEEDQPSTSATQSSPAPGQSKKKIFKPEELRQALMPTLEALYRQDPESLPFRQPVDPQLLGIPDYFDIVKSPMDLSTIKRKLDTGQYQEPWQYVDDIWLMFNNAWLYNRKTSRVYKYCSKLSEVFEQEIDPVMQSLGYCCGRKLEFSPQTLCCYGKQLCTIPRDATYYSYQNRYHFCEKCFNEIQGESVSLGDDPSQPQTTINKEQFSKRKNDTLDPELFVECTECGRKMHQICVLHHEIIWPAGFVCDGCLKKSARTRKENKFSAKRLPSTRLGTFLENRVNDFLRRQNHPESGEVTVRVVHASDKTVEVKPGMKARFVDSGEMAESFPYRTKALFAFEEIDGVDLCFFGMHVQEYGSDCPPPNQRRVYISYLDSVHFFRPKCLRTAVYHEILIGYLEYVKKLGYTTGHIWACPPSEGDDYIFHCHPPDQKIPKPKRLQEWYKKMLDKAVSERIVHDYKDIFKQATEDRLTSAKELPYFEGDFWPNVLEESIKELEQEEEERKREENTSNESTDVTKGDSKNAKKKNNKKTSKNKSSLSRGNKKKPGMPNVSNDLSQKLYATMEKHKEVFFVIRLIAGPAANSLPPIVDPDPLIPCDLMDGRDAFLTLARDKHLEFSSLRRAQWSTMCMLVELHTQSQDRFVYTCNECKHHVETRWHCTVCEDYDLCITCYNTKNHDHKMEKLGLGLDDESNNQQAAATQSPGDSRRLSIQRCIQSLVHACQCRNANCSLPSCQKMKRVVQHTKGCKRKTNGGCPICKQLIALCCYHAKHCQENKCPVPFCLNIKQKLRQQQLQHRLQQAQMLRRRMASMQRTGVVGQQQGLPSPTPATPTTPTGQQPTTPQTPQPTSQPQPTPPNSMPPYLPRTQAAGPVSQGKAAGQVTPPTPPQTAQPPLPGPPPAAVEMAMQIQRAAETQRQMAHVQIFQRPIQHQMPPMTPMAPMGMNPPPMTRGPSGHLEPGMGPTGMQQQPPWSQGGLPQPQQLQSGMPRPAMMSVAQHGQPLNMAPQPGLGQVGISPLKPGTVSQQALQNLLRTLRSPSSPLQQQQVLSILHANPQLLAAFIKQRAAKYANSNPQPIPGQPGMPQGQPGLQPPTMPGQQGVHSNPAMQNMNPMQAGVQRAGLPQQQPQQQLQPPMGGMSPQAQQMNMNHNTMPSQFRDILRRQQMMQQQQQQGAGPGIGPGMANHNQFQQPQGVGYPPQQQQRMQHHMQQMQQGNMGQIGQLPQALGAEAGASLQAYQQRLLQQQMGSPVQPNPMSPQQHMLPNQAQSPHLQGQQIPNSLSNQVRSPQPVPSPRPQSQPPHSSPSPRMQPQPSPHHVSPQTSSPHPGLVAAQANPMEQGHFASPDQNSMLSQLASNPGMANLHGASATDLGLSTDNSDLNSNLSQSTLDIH
T1 sequence (Q92793 2-2442 limits assumed, other chains not shown): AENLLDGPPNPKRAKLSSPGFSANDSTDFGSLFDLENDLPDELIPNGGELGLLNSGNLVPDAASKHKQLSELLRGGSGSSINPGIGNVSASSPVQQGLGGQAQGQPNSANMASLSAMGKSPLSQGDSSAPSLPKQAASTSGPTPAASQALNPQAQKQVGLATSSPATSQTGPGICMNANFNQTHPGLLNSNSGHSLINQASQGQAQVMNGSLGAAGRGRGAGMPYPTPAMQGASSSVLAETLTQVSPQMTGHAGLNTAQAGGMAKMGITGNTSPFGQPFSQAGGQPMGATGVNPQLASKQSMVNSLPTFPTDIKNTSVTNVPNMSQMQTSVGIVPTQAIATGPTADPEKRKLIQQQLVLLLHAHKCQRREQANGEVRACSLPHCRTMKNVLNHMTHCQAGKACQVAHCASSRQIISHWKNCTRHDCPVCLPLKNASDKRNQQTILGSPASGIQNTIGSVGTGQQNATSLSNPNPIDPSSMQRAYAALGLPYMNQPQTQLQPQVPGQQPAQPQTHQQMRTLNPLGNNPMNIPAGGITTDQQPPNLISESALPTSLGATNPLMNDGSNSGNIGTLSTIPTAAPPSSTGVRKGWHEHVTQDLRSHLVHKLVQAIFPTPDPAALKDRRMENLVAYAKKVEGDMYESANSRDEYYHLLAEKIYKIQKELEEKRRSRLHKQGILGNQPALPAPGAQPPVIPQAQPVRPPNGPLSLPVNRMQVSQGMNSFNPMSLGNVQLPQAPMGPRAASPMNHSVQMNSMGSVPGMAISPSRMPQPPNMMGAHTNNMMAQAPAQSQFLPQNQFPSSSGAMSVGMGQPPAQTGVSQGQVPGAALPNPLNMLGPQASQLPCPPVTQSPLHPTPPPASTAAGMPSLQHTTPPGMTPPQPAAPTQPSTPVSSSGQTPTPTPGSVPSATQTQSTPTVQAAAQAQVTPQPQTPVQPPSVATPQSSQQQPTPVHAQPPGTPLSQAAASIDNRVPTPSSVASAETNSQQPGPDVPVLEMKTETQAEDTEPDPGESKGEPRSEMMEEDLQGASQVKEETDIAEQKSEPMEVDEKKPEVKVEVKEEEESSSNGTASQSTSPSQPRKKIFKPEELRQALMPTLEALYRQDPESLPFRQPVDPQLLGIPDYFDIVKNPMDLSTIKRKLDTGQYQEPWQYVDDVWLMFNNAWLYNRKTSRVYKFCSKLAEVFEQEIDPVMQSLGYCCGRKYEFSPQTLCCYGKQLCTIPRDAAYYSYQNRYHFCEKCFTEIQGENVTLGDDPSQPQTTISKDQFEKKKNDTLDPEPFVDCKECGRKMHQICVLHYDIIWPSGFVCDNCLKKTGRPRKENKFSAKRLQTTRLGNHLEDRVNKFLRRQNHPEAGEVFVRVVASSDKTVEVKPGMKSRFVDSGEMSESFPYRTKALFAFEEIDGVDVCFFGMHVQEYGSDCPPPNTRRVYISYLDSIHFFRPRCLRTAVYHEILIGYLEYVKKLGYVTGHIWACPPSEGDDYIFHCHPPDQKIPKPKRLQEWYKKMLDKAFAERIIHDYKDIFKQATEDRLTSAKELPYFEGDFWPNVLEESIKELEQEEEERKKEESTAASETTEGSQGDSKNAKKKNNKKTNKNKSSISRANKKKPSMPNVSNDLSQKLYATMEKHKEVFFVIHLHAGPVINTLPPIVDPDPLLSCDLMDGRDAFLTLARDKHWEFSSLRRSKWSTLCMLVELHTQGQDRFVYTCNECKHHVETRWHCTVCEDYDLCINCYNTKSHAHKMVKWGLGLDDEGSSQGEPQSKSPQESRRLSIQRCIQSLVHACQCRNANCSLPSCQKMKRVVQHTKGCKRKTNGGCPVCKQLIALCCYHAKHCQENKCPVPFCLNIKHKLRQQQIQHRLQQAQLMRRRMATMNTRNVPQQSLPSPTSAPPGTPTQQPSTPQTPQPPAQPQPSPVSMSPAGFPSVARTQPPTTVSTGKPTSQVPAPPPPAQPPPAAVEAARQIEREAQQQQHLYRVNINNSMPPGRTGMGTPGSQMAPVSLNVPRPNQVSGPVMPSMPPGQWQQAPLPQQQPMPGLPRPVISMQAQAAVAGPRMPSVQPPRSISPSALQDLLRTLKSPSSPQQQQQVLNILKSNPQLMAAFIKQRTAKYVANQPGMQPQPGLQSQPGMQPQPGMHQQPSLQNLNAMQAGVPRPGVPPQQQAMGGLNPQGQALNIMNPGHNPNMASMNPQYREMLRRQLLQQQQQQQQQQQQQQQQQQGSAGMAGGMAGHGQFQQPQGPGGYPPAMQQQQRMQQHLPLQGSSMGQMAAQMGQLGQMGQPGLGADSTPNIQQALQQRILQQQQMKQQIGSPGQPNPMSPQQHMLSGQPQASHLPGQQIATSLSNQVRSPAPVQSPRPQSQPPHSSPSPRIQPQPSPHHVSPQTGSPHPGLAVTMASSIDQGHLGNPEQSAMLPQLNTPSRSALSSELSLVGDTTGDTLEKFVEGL

CNC(=O)COc1cc2cc(Nc3nc(N4CCC(C(=O)N5CCN(CCC(=O)N6CCC(n7nc(N8CCCc9cc(-c%10cnn(C)c%10)c(C(F)F)cc98)c8c7CCN(C(=O)NC)C8)CC6)CC5)CC4)ncc3Cl)cc(OC)c2n(C)c1=O [TCIP3]
IC50 (K422): 4 nM | concentration at which increase of acetylated BCL6 begins (BCL6): 1 nM | cytotoxicity [1]: substantially reduced cytotoxicity; also recorded: without exhibiting toxicity
